Experimental data taken from patent publication US20220175734A1, “USING PARASYMPATHOMIMETIC DRUGS ALONE OR, IN COMBINATION WITH ONE OR MORE ALPHA AGONISTS IN PSEUDOPHAKIC PATIENTS, TO CREATE MULTI-FOCALITY” (Visus Therapeutics, Inc., priority 2019, published 2022).
“And” between values parts separate entries of the source, which are not always exact repeats. Identical values can stand only once.

Tests used:
[1] = system: naturally emmetropic and presbyopic subjects; conditions: combination, separate, brimonidine alone, carbachol alone; FIG. 11
Procedure: Participants were volunteers selected at random.
The study used standard Snellen projector chart to measure distance visual acuity. Near visual acuity was assessed at 40 cm using Jaeger (J) Eye Chart. Statistical analysis was performed using the Student's t-test and p value of less than 0.05 was considered statistically significant. Data was expressed as mean, range, and standard deviation (SD).

[2] = system: naturally emmetropic and presbyopic subjects; experiment: Example 13 crossover trial, combined vs separate carbachol and brimonidine drops: near visual acuity (Rosenbaum chart, Jaeger notation) (Table 13); assay type: in vivo, human; conditions: for NVA 1-h / NVA 2-h / NVA 4-h / NVA 8-h / NVA Pre-treatment: mean ± SD, ten subjects; for NVA Pre-treatment: before treatment
Text: (§1) Participants were randomly selected volunteers. […] None of the patients included in the study had received any topical medication that could cause pupil mydriasis or miosis. […] All procedures followed were in accordance with the ethical standards of the responsible committee on human experimentation.
(§2) The 3% carbachol drops included 50 ppm of benzalkonium chloride.

[3] = system: naturally emmetropic and presbyopic subjects; experiment: Example 13 crossover trial: pupil size (Colvard infrared pupilometer) (Table 13); assay type: in vivo, human; conditions: for PS 1-h / PS 2-h / PS 4-h / PS 8-h / PS Pre-treatment: mean pupil size, ten subjects; for PS Pre-treatment: before treatment
Text: as §1, §2

emmetropic presbyopes = conditions: Group 1
Text: (§3) The study evaluated in a blind study the efficacy of using of a parasympathomimetic drug of different concentrations together with an alpha agonist to create optically beneficial miosis to temporarily treat different types of presbyopia (emmetropic, myopic and hyperopic).
(§4) One hundred and seventy seven presbyopic subjects with a mean age of 49.8±3.9 years (range 41-57 years); 96 males and 81 females were recruited in this study. The participants in the study all gave written informed consent. […] During the study, the subjects were closely monitored and regularly asked to report on any ocular, systemic, or physiological reactions they experienced. […]
(§5) Initial pupil size and both near and distance visual acuities were documented before treatment and at 1, 2, 4, 8 and 10 hours after treatment at the same room illumination. Subjects were monitored and subjected to complete ocular examination including visual acuity evaluation and slit-lamp biomicroscopy after one week of treatment and monthly during the first three months to evaluate dosage, satisfaction, adverse effects and complications (for instance, retinal detachment, pigment dispersion, posterior synechiae and intraocular inflammation). […] Distance visual acuity was measured using the standard Snellen projector chart. […] Any adverse symptoms and subject satisfaction with near and distance vision were also monitored. […]

myopic presbyopes = conditions: Group 2
Text: as §3, §4, §5

presbyopic subjects = conditions: subjects receiving brimonidine drops
Text: One hundred and seventy seven presbyopic subjects with a mean age of 49.8±3.9 years (range 41-57 years); 96 males and 81 females were recruited in this study. The participants in the study all gave written informed consent. […] All subjects were in good physical and ocular health and completed a questionnaire to ascertain any contraindications for participation or predisposition to complications (e.g. heart or respiratory conditions, migraines, high myopia, ocular or systemic medications, or ocular surgeries). […] The examination screened for contraindications to the drugs, susceptibility to retinal detachment, ocular pathology, or peripheral retinal degeneration. […] During the study, the subjects were closely monitored and regularly asked to report on any ocular, systemic, or physiological reactions they experienced. […]
Initial pupil size and both near and distance visual acuities were documented before treatment and at 1, 2, 4, 8 and 10 hours after treatment at the same room illumination. Subjects were monitored and subjected to complete ocular examination including visual acuity evaluation and slit-lamp biomicroscopy after one week of treatment and monthly during the first three months to evaluate dosage, satisfaction, adverse effects and complications (for instance, retinal detachment, pigment dispersion, posterior synechiae and intraocular inflammation). […]

hyperopic presbyopes = experiment: Example 6 masked study: near visual acuity (Jaeger Eye Chart), Group 3, both eyes (Tables 9, 10)
Text: as §3, §4, §5

presbyopia subjects [4] = experiment: Example 8 dose range studies of carbachol and pilocarpine with or without brimonidine: near LogMAR visual acuity
Procedure: Dose range studies were performed for carbachol and pilocarpine.
Both Groups 1 and 2 received the same pre- and post-treatment work-up and measurements: Age, gender, initial pupil size, and near vision acuity (NVA) were documented. Subjects' NVA was measured post treatment at 1, 2, 4, and 8 hours, at the same room illumination Any adverse symptoms and subject satisfaction with near and distance vision were documented.

presbyopia subjects [5] = experiment: Example 8 dose range studies: adverse symptoms, tolerability and satisfaction survey; assay type: in vivo, human
Text: The survey asked the patients whether they would use the drops again.

[6] = Stability of pilocarpine at neutral pH; assay type: physicochemical; conditions: needs about pH 5
[7] = system: patients suffering from presbyopia; experiment: Example 4 preliminary evaluation: near visual acuity after pilocarpine alone or with brimonidine (Table 1 dosages, FIG. 1); assay type: in vivo, human; conditions: individual patients
Text: Initially, 10 patients were selected for preliminary evaluation. […] All six dosages provided some (varying) initial improvement in visual acuity. However, the effect of formulations containing pilocarpine alone appears to wear out fairly quickly whereas it takes longer time for effects of formulations containing both drugs to wear out.

[8] = system: patients suffering from presbyopia; experiment: Table 11: pupil diameter after pilocarpine alone or pilocarpine plus brimonidine; assay type: in vivo, human; conditions: individual patients

In the case of Brc1c(NC2=NCCN2)ccc2nccnc12 [Brimonidine 0.2%, brimonidine], the “mean change in near visual acuity (J), comparison of all groups” value [1] is reported as “the least”, the “difference in mean NVA before treatment vs any time point after treatment” value (from here on “difference in mean NVA before treatment”) ([2]; P>0.05) is reported as “no statistically significant difference” and the “NVA 1-h” value ([2]; 1 h post-treatment) is reported as 7.7 ± 1.3 J. For the same molecule, the “NVA 2-h” value ([2]; 2 h post-treatment) was 8.2 ± 1.3 J, the “NVA 4-h” value ([2]; 4 h post-treatment) was 8.5 ± 1.4 J and the “NVA 8-h” value ([2]; 8 h post-treatment) was 8.6 ± 1.5 J. The “NVA Pre-treatment” value [2] was 8.6 ± 1.5 J, the “difference in mean PS before treatment vs any time point after treatment” value ([3]; P>0.05) was “no statistically significant difference” and the miotic effect ([3]; mainly first hour after instillation, light luminance, not statistically significant (P>0.05)) was “mild miotic effect”. For the same molecule, the “PS 1-h” value ([3]; 1 h post-treatment) was 3.95 ± 0.5 mm, the “PS 2-h” value ([3]; 2 h post-treatment) was 4.2 ± 0.4 mm and the “PS 4-h” value ([3]; 4 h post-treatment) was 4.3 ± 0.5 mm. For the same molecule, the “PS 8-h” value ([3]; 8 h post-treatment) was 4.3 ± 0.5 mm, the “PS Pre-treatment” value [3] was 4.3 ± 0.5 mm and the “effect on pupil size or NVA” value ([3]; with 50 ppm BAK) was “virtually no effect”. The “difference in mean NVA before treatment” value (emmetropic presbyopes) was “No statistically significant difference”, the “difference in mean NVA before treatment” value (myopic presbyopes) was “No statistically significant difference” and the “mild burning sensation, number of subjects” value (presbyopic subjects) was 10 subjects. The “difference in mean NVA before treatment” value (hyperopic presbyopes) was “No statistically significant difference” and the synergy (presbyopia subjects [4]; in vivo) was “synergistic with both carbachol and pilocarpine”.
In the case of CC[C@@H]1C(=O)OC[C@@H]1Cc1cncn1C [pilocarpine], the burning (presbyopia subjects [5]; in vivo) is reported as “burned”, the “stability at neutral pH” value [6] is reported as “unstable at neutral pH” and the onset of effect (presbyopia subjects [4]; pilocarpine vs carbachol) is reported as “more immediate effect”. The duration (presbyopia subjects [4]; pilocarpine vs carbachol, in words) was “shorter duration”.
In the case of CC[C@@H]1C(=O)OC[C@@H]1Cc1cncn1C [Pilo Alone], the “nVA(j) 1 hr” value ([7]; Pilo 0.5%) is reported as 3 j (2×) and 6 j and 5 j, the “nVA(j) 2 hrs” value ([7]; Pilo 0.5%) is reported as 5 j (2×) and 3 j (2×) and the “nVA(j) 4 hrs” value ([7]; Pilo 0.5%) is reported as 5 j (3×) and 3 j. For the same molecule, the “nVA(j) 1 hr” value ([7]; Pilo 1%) was 3 j (2×) and 2 j and 8 j, the “nVA(j) 2 hrs” value ([7]; Pilo 1%) was 3 j and 2 j (2×) and 8 j and the “nVA(j) 4 hrs” value ([7]; Pilo 1%) was 5 j (2×) and 3 j and 10 j. The “Pre-Treatment Near Va” value ([7]; before treatment) was 6 j (4×) and 5 j (4×) and 8 j (2×) and 10 j and 3 j, the “pupil 1 hr” value ([8]; Pilo 0.5%) was 2.5 and 3.8 and 3 (2×) and the “pupil 2 hrs” value ([8]; Pilo 0.5%) was 3 and 4 and 2.5 and 3.3. For the same molecule, the “pupil 4 hrs” value ([8]; Pilo 0.5%) was 3.3 and 4 and 3 and 4.2, the “pupil 1 hr” value ([8]; Pilo 1%) was 2.5 (2×) and 1.5 and 3 and the “pupil 2 hrs” value ([8]; Pilo 1%) was 3 (2×) and 1.5 and 2.5. For the same molecule, the “pupil 4 hrs” value ([8]; Pilo 1%) was 4 (2×) and 2.5 and 3, the “pupil 4 hrs” value ([8]; Pilo […]) was 4 and the “Pre-Treatment Pupil Diam O.S.” value ([8]; before treatment, left eye) was 4 (2×) and 4.3 and 3.5 (2×) and 5 and 3.9 and 3 and 4.5 (3×) and 5.4. For the same molecule, the “Pre-Treatment Pupil Diam O.D.” value ([8]; before treatment, right eye) was 4 (3×) and 3.5 (2×) and 5 and 4.3 and 3 and 4.5 (3×) and 5.5.
For C[N+](C)(C)CCOC(N)=O [carbachol], the “tolerability / discomfort vs carbachol concentration” value (presbyopia subjects [5]; over seven days, FIG. 15) was “caused some increased discomfort” and the duration (presbyopia subjects [4]; in vivo) was 8 h.
For C[N+](C)(C)CCOC(N)=O [3% carbachol alone, carbachol], the “mean near visual acuity (NVA)” value ([2]; 1 h post-treatment) was 5.5 ± 1 J, the “mean near visual acuity (NVA)” value ([2]; 2 h post-treatment) was 5.9 ± 0.8 J and the “mean near visual acuity (NVA)” value ([2]; 4 h post-treatment) was 7 ± 1.2 J. For the same molecule, the “mean near visual acuity (NVA)” value ([2]; 8 h post-treatment) was 7.5 ± 1 J, the “mean near visual acuity (NVA)” value ([2]; before treatment (baseline)) was 8.6 ± 1.5 J and the “mean near visual acuity (NVA) (target)” value ([2]; hours 1-8, Snellen fraction, FIG. 25) was “never achieved an NVA of ≥20/40”. For the same molecule, the “NVA 1-h” value ([2]; 1 h post-treatment) was 5.5 ± 1 J, the “NVA 2-h” value ([2]; 2 h post-treatment) was 5.9 ± 0.8 J and the “NVA 4-h” value ([2]; 4 h post-treatment) was 7 ± 1.2 J. For the same molecule, the “NVA 8-h” value ([2]; 8 h post-treatment) was 7.5 ± 1 J, the “NVA Pre-treatment” value [2] was 8.6 ± 1.5 J and the “mean pupil size (PS)” value ([3]; 1 h post-treatment) was 2.8±0.3 mm. For the same molecule, the “mean pupil size (PS)” value ([3]; 2 h post-treatment) was 3±0.3 mm, the “mean pupil size (PS)” value ([3]; 4 h post-treatment) was 3.5±0.3 mm and the “mean pupil size (PS)” value ([3]; 8 h post-treatment) was 4±0.3 mm. The “mean pupil size (PS)” value ([3]; before treatment (baseline)) was 4.3±0.5 mm, the “mean pupil size (target)” value ([3]; hours 1-8, FIG. 24) was “never achieved the target pupil size” and the “PS 1-h” value ([3]; 1 h post-treatment) was 2.8 ± 0.3 mm. The “PS 2-h” value ([3]; 2 h post-treatment) was 3 ± 0.3 mm, the “PS 4-h” value ([3]; 4 h post-treatment) was 3.5 ± 0.3 mm and the “PS 8-h” value ([3]; 8 h post-treatment) was 4 ± 0.3 mm. For the same molecule, the “PS Pre-treatment” value [3] was 4.3 ± 0.5 mm.
